According to publication PMC12459314, “Subcutaneous administration of a novel TRPM8 antagonist reverses cold hypersensitivity while attenuating the drop in core body temperature” (British journal of pharmacology, 2024):

Tests used:
human TRPA1 = biological target: T1, human TRPA1 (Homo sapiens, UniProt O75762); assay: FlexStation Ca2+ flux assay in HEK293T cells transfected with human TRPA1; format: cell-based; details: against an EC80 concentration (10 μM) of AITC
T1 construct: expressed in transfected cells; host or cells: HEK293T
T1 sequence (O75762 whole entry): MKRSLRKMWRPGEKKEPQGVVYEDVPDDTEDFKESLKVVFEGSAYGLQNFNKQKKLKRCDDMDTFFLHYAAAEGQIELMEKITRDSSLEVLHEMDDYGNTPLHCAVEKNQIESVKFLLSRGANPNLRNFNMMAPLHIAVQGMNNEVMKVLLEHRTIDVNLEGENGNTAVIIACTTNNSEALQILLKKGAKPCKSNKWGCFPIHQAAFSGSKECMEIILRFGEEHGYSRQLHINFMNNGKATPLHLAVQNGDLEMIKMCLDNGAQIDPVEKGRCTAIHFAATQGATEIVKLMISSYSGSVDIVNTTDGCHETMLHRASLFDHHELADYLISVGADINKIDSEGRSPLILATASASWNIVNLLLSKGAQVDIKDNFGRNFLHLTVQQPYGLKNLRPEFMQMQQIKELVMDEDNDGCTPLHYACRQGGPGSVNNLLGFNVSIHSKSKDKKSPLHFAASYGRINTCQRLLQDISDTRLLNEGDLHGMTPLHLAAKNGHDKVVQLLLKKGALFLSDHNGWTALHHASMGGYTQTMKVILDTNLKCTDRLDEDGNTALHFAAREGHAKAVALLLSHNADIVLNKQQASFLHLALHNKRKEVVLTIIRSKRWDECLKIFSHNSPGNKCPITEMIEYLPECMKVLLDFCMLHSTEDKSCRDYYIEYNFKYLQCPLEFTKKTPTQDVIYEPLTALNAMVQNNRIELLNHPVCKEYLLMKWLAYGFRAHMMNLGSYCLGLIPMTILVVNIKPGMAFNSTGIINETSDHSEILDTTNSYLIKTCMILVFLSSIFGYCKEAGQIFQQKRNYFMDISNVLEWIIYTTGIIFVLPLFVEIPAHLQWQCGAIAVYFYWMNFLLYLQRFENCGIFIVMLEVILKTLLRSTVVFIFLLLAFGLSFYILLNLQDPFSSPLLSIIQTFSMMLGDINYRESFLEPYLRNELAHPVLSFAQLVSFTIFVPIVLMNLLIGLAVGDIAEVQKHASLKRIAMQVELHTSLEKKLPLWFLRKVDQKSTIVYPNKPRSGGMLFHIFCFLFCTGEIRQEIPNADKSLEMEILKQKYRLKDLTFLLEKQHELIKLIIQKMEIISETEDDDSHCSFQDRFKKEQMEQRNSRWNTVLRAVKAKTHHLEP
Description: (§1) The human embryonic kidney cell line (HEK293T, CRL-1573, RRID: CVCL_0045) was purchased from the American Type Culture Collection (Manassas, USA) and was maintained in Dulbecco’s Minimal Essential Medium (DMEM, Cellgro10013CV, Corning, Tewksbury, USA) that was supplemented with 10% fetal bovine serum (Gemini Bio-products), 2-mM L-glutamine (Invitrogen) and 100 U/mL penicillin and streptomycin (Invitrogen) and cultured in an incubator at 37°C, 5% CO2 and 95% humidity. Human TRPV1 and TRPA1 plasmid DNA (gift from D. Julius) were transiently bulk transfected individually into HEK293T cells using the FuGene HD transfection reagent (TFR, Promega, Madison, WI, USA) at a 3:1 ratio (TFR:DNA). Transfected cells were seeded at 10,000 cells per well in a volume of 25 μl into black walled collagen coated 384-well microtiter plates and cultured in an incubator at 37°C, 5% CO2 and 95% humidity for 48 h prior to the initiation of calcium mobilization experiments performed on a FlexStation 3 (Molecular Devices, Sunnyvale, CA, USA) platform equipped with a 16-channel robotic pipettor head and FLIPR tetra pipette tips. At 46 h post transfection, cell monolayers were preloaded with 25 μl of the FLIPR Calcium 6 dye (Molecular Devices) for 2 h in an incubator at 37°C, 5% CO2 and 95% humidity according to the manufacturer’s instructions. The plate was transferred to a FlexStation 3 microplate reader. Relative fluorescence units (RFUs) (Ex. 485 nm, Em 525 nm) were then acquired at 37°C in the kinetic mode. The run time for the agonist (1st) and antagonist (2nd) reads were 60 s each, for a total run time of 120 s, with an interval of 3.1 s between reads in the same well to allow all 16 wells in a column to be read sequentially, and the photomultiplier tube (PMT) level was set at medium, with 6 flashes per read. Baseline Fluo-6 RFUs were acquired for 18 s prior to the addition of compound in both the agonist and antagonist reads. For the first addition agonist read, the volume in the well was 50 μl, the pipette height was set at 40 μl, and 12.5 μl of the test compound was delivered at a speed of 2 μl·s^−1 after the baseline RFU’s acquisition period at 19 s, and the RFUs were acquired for an additional 41 s. For the second addition antagonist read, the volume in the well was 62.5 μl, the pipette height was set at 40 μl, and 12.5 μl of an EC80 agonist concentration was delivered at a speed of 2 μl/s after the baseline RFU’s acquisition period at 19 s, and the RFUs were acquired for an additional 41 s. The FlexStation 3 instrument settings, automated pipetting and data collection were all controlled by the SoftMax Pro software, version 7.1.2.
To analyse the agonist and antagonist Ca^2+ mobilization Fluo-6 RFU’s kinetic data, the RFU’s readings acquired throughout the 60-s acquisition period for each individual well were divided by the average RFU values acquired during the first 18-s baseline acquisition period from the same well to calculate a fold over baseline (FOB) ratio.

oxaliplatin-treated mice = assay: Oxaliplatin-induced cold hyperalgesia, cold-plantar test; format: in vivo, mouse
Description: Male and female C57 BL/6J mice from Taconic Labs were randomized by sex and cage to oxaliplatin or vehicle groups. Mice were weighed and injected intraperitoneally (i.p.) with either oxaliplatin (3 mg·kg^−1), or vehicle (5% dextrose) once per day every day for five consecutive days, followed by five days off, and then by a second round of once per day for five more days. Therefore, mice received a total of 10 injections for a total of 30 mg·kg^−1. The average weight of the females was 18 g while of the males was 20 g. Consequently, the females received an average of 540 and the males 600 μg in total. Behavioural testing was started after the second round of oxaliplatin/vehicle administration. The cold-plantar test was used to assess changes in cold sensitivity. A 3 ml syringe barrel filled with powdered dry ice was used as the stimulus. The dry ice is placed on the glass (borosilicate glass; thickness, 1/8 in. (3.17 mm); temperature, 75°F (24°C), measured with a calibrated IR temperature probe) beneath the hindpaw and the latency to withdraw was determined ([Yilmaz et al., 2017]). The baseline withdrawal latency was determined from the mean of three stimulus applications (at an inter-stimulus interval of ~5 min), while that at each time interval after the administration of a test agent was again the mean of three stimulus applications bracketing the time point in question (i.e., 5 min before, at the time point, and 5 min after). Mice in the two groups defined by oxaliplatin treatment were subsequently randomized to the order of treatment (with the TRPM8 antagonist VBJ103, or vehicle control). VBJ103 and vehicle solutions were administered subcutaneously (s.c.) at doses of 3, 10 and 30 mg·kg^−1. Mice were tested every other day over 7 days so that each mouse received all four injections (vehicle and three doses of VBJ103). In a second cohort of male (n = 8) and female (n = 8) mice, all mice were treated with oxaliplatin as described above, and then randomized to the order of treatment with vehicle, VBJ103 (30 mg·kg^−1) alone, the TRPA1 antagonist, HC-030031 (200 mg·kg^−1) alone, or the combination of VBJ103 (30 mg·kg^−1) and HC-030031 (200 mg·kg^−1). A third cohort of male (n = 7) and female (n = 8) mice was also treated with oxaliplatin as described above. […] All test agents in both follow-up cohorts were again administered in a volume of 5 ml·kg^−1. Mice in both follow-up cohorts were again tested every other day over a period of 6 days. Finally, a fourth cohort of male (n = 4) and female (n = 4) mice was used to confirm that 200 mg·kg^−1 HC-030031 was sufficient to block TRPA1. For this experiment, mice were randomized to the order of treatment with vehicle or HC-030031 ([…]).

AITC-treated mice = assay: AITC-induced nociceptive behaviours; format: in vivo, mouse; details: HC-030031 200 mg·kg−1, 30 min before AITC 3 mg·kg−1 i.p.; quantified over 20 min
Description: Male and female C57 BL/6J mice from Taconic Labs were randomized by sex and cage to oxaliplatin or vehicle groups. Mice were weighed and injected intraperitoneally (i.p.) with either oxaliplatin (3 mg·kg^−1), or vehicle (5% dextrose) once per day every day for five consecutive days, followed by five days off, and then by a second round of once per day for five more days. Therefore, mice received a total of 10 injections for a total of 30 mg·kg^−1. The average weight of the females was 18 g while of the males was 20 g. Consequently, the females received an average of 540 and the males 600 μg in total. Behavioural testing was started after the second round of oxaliplatin/vehicle administration. The cold-plantar test was used to assess changes in cold sensitivity. […] The dry ice is placed on the glass (borosilicate glass; thickness, 1/8 in. (3.17 mm); temperature, 75°F (24°C), measured with a calibrated IR temperature probe) beneath the hindpaw and the latency to withdraw was determined ([Yilmaz et al., 2017]). The baseline withdrawal latency was determined from the mean of three stimulus applications (at an inter-stimulus interval of ~5 min), while that at each time interval after the administration of a test agent was again the mean of three stimulus applications bracketing the time point in question (i.e., 5 min before, at the time point, and 5 min after). […]

human TRPV1 = biological target: T2, human TRPV1 (Homo sapiens, UniProt Q8NER1); assay: FlexStation Ca2+ flux assay in HEK293T cells transfected with human TRPV1; format: cell-based
T2 construct: expressed in transfected cells; host or cells: HEK293T
T2 sequence (Q8NER1 whole entry): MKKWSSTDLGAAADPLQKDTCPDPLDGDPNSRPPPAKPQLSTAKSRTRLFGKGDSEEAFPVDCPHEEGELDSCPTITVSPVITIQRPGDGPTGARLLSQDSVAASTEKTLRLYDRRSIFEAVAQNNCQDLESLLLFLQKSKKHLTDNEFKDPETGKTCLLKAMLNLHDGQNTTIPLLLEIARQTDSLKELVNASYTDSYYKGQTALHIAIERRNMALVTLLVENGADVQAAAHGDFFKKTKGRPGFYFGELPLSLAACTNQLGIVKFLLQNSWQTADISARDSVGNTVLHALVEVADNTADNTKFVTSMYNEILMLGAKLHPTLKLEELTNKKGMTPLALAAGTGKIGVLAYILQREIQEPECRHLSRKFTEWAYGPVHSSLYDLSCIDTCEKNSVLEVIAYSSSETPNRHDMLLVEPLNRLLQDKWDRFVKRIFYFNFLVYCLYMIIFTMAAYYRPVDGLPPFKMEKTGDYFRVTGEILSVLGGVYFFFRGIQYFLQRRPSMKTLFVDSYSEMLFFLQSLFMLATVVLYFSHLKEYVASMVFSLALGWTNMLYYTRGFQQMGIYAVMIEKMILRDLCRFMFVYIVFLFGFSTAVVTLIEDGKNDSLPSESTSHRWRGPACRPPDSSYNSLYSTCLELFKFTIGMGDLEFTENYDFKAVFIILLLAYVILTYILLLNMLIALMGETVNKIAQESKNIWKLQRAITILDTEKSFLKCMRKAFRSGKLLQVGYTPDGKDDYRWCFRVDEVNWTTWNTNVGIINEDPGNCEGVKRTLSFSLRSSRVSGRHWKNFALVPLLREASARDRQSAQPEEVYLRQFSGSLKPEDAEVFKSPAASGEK
Description: as §1, with “Transfected cells were seeded at 10,000 cells per well in a volume of 25 μl into black walled collagen coated 384-well microtiter plates and cultured in an incubator at 37°C, 5% CO2 and 95% humidity for 48 h prior to the initiation of calcium mobilization experiments performed on a FlexStation 3 (Molecular Devices, Sunnyvale, CA, USA) platform equipped with a 16-channel robotic pipettor head and FLIPR tetra pipette tips. At 46 h post transfection, cell monolayers were preloaded with 25 μl of the FLIPR Calcium 6 dye (Molecular Devices) for 2 h in an incubator at 37°C, 5% CO2 and 95% humidity according to the manufacturer’s instructions.” left out, “The FlexStation 3 instrument settings, automated pipetting and data collection were all controlled by the SoftMax Pro software, version 7.1.2.” left out

[1] = Partition coefficient (logD), shake flask method; format: physicochemical; details: n-octanol / pH 7.4 phosphate buffer
Description: The partition coefficient (logD) at pH 7.4 of VBJ103 was determined using the shake flask method by Absorption Systems (Exton, PA, USA). The buffer was prepared by combining 50 ml of 0.2-M solution of KH2PO4 with 150 ml of dH2O and then adjusting to pH 7.4 with 10-N NaOH. In a single incubation, 15 μl of a 10-mM DMSO solution of each test article was added to test tubes which contained 0.75 ml of n-octanol and 0.75 ml of pH 7.4 phosphate buffer. Testosterone was also introduced to each tube as an internal control, also at a dosing concentration of 100 μM. These samples were gently mixed on a benchtop rotator for 1 h at room temperature. The tubes were then removed from the rotator, and the aqueous and organic phases were allowed to separate for 1 h. An aliquot of the organic layer was taken and diluted 200-fold into a mixture of 1:1 buffer: acetonitrile (ACN). An aliquot of the aqueous layer was taken and diluted 2-fold, 10-fold and 200-fold into a mixture of 1:1 buffer: ACN. All samples were assayed by LC–MS/MS on a Thermo BDS Hypersil C18 column (30 × 2.1 mm, 3 μm) using electrospray ionization, as previously reported ([Journigan et al., 2020]).

[2] = ref Journigan et al, 2020; cited from earlier work
[3] = Core body temperature and home cage activity by radiotelemetry (s.c., i.p.); format: in vivo, mouse; details: capsaicin 1 mg·kg−1 s.c.
Description: Male and female C57Bl6J (Jackson Laboratories, Bar Harbor, USA, 8–12 weeks of age, 4 M:3F) were anaesthetised with isoflurane (2%–3% in 100% oxygen), and an HDX11 telemetry unit (Data Sciences) was inserted into the peritoneal cavity through a ventral midline incision. Animals were treated with buprenex (0.05 mg·kg^−1, s.c.every 8 h for 72 h) and enrofloxacin (2 mg·kg^−1, s.c.) and single-housed in a reverse light–dark cycle room (lights off 10 AM–10 PM). Mice were handled every day to acclimatise to injections, and experiments began 1 week later. All injections were performed between 1 and 2 PM. […] Body temperature was averaged into 5-min bins, whereas activity data were summed for the 5-min bin.

[4] = Core body temperature by radiotelemetry after i.c.v. administration; format: in vivo, mouse; details: 3 nmol in 1 μL i.c.v.; within 60 min; in five of eight mice
Description: A second set of male C57Bl6J mice (Jackson Laboratories, n = 8) was implanted with telemetry as described above and a 26-gauge brain cannula (Plastics One) targeted at the lateral ventricle using coordinates relative to Bregma: 0.3 mm caudal, 1.0 mm lateral, 3.0 mm ventral. This second procedure was also performed under isoflurane anesthesia. The brain cannula was secured to the skull with two screws and dental cement. Animals were treated with buprenex (0.05 mg·kg^−1, s.c. every 8 h for 48 h) and enrofloxacin (2 mg·kg^−1, s.c.), singly housed and handled daily as described above. A single i.c.v. injection was performed every other day in a randomized order and included: (1) Galanin-like peptide (3 nmol/1 μL), (2) VBJ103 (306 nmol/1 μL) and (3) VBJ103 vehicle (1 μL). Galanin-like peptide produced a decrease in body temperature in five of eight mice. Therefore, body temperature data in response to VBJ103 and vehicle are presented in these five mice. These studies were carried out with a single dose of VBJ103 (306 nmol/1 μL or ~4 mg·kg^−1), which was the highest dose achievable due to constraints of the injection volume and the solubility of VBJ103.

Compound: Cl.Cl.Cl.Cl.Cl.Cl.N.N.N.N.N.N.N.N.N.N.N.N.N.N.[O-2].[O-2].[Ru+3].[Ru+3].[Ru+4] [ruthenium red, reference compound]
- IC50 (human TRPA1): 53 ± 7 nM

Compound: CC(C)c1ccc(NC(=O)Cn2cnc3c2c(=O)n(C)c(=O)n3C)cc1 [HC-030031, reference compound]
- IC50 (human TRPA1): 2000 ± 830 nM
- maximum inhibition at TRPA1 (human TRPA1): 54%
- influence on oxaliplatin-induced cold hypersensitivity (oxaliplatin-treated mice; 200 mg·kg−1 alone, second cohort, vehicle 0.5% Methocel): failed to detect an influence
- AITC-induced nociceptive behaviours (AITC-treated mice): significantly attenuated

Compound: Fc1ccc(C(OCCN2CCN(CCCc3ccccc3)CC2)c2ccc(F)cc2)cc1 [GBR12909, reference compound]
- influence on withdrawal latency to noxious cold stimuli (oxaliplatin-treated mice; 20 mg·kg−1 alone, third cohort, vehicle 1:1 DMSO:water): no detectable influence

Compound: Oc1cc2c(cc1O)CN(C(=S)NCCc1ccc(Cl)cc1)CCC2 [capsazepine, reference compound]
- IC50 (human TRPV1): 566 ± 86 nM

Compound: C[C@]12CC[C@H]3[C@@H](CCC4=CC(=O)CC[C@@]43C)[C@@H]1CC[C@@H]2O [testosterone, reference compound]
- logD at 1 h [1]: 3.09
- Mouse Liver microsomes, T1/2 [2]: 3.7 min

Compound: COc1cc(CNC(=O)CCCC/C=C/C(C)C)ccc1O [capsaicin, reference compound]
- time of peak drop in CBT [3]: ≤ 60 min
- drop in CBT versus s.c. VBJ103 or PBMC ([3]; positive control): significantly larger drop

Compound: galanin-like peptide: peptide given i.c.v. as positive control for a decrease in body temperature (APAHRGRGGWTLNSAGYLLGPVLHLPQMGDQDGKRETALEILDLWKAIDGLPYSHPPQPS; Galanin-like peptide; UniProt Q9UBC7 25-84, looked up) [reference compound]
- decrease in CBT [4]: > 3 °C
